The values below come from BindingDB's records for doi:10.1016/j.bioorg.2012.08.003 (North-West University, 2012).

Assay [1] concerns the target T1, Amine oxidase [flavin-containing] A (Homo sapiens, UniProt P21397).
T1 sequence (P21397 whole entry): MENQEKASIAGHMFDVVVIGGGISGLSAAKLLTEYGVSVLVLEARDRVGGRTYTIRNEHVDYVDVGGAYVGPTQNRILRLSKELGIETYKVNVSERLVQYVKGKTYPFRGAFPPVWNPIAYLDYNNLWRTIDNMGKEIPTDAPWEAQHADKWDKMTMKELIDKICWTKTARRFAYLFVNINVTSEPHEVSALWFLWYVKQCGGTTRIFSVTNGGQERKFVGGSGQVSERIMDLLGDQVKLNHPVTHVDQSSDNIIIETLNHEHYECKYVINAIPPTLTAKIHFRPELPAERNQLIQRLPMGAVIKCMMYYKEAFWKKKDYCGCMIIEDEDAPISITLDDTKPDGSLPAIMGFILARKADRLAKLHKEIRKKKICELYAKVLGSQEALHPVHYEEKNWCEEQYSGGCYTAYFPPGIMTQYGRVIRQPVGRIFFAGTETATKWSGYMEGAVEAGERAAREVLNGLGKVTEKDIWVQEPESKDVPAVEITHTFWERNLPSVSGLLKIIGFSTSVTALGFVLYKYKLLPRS
Briefly: Inhibition Assay. The conditions noted are these: pH 7.4; 37 °C. From the text:
(§1) Inhibition studies using recombinant human MAO-A and MAO-B that were obtained from commercial sources (Sigma-Aldrich).

Assay [2] deals with T2, Amine oxidase [flavin-containing] B (Homo sapiens, UniProt P27338).
T2 sequence (P27338 whole entry): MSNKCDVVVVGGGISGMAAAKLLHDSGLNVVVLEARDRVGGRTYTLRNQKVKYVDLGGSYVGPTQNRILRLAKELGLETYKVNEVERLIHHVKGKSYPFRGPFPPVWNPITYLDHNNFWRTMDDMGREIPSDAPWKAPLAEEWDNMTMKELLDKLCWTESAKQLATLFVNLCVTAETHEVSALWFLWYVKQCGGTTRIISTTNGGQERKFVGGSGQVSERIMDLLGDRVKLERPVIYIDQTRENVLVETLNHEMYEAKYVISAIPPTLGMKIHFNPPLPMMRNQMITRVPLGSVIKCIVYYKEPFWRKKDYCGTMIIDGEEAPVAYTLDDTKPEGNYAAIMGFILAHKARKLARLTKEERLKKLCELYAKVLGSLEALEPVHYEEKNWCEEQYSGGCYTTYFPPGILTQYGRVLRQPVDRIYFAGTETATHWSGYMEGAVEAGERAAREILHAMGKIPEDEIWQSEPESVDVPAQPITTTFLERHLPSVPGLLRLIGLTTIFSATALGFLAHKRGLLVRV
Briefly: Inhibition Assay. As to conditions: pH 7.4; 37 °C.
Excerpt: as §1

The structures appear in SMILES notation. pIC50: −log10 of the molar value.

One may read the pIC50 as −log10 of the IC50, conventionally taken in molar units. A higher pIC50 goes with a low IC50.

Consider `O=c1ccoc2cc(OCc3ccccc3)ccc12` [C7-substituted chromone derivative, 3a], for which the values for the pIC50 in assay [1] and in assay [2] were 5.27 and 7.07, respectively. The like results for `O=c1ccoc2cc(OCCc3ccccc3)ccc12` [C7-substituted chromone derivative, 3b] were, in that order, 5.66 and 6.94. The like results for `O=c1ccoc2cc(OCCCc3ccccc3)ccc12` [C7-substituted chromone derivative, 3c] were, in that order, 5.51 and 6.92. Turning to `O=c1ccoc2cc(OCc3cccc(Cl)c3)ccc12` [C7-substituted chromone derivative, 3d], the negative-log IC50 (pIC50) in assay [1] is 5.82. Take `O=c1ccoc2cc(OCc3ccc(Cl)cc3)ccc12` [C7-substituted chromone derivative, 3e]: the pIC50 in assay [1] was 6.31; in assay [2], 7.54.

For `O=c1ccoc2cc(OCc3cccc(Br)c3)ccc12` [C7-substituted chromone derivative, 3f], the values for the pIC50 in assay [1] and in assay [2] were 5.76 and 7.85, respectively. As to `O=c1ccoc2cc(OCc3ccc(Br)cc3)ccc12` [C7-substituted chromone derivative, 3g], the pIC50 in assay [1] is 6.23; in assay [2], 7.74. The like results for `O=c1ccoc2cc(OCc3cccc(F)c3)ccc12` [C7-substituted chromone derivative, 3h] were, in that order, 5.68 and 7.36.

`O=c1ccoc2cc(OCc3ccc(F)cc3)ccc12` [C7-substituted chromone derivative, 3i] showed a negative logarithm of the IC50 (pIC50) in assay [1] of 5.93. For the molecule `Cc1cccc(COc2ccc3c(=O)ccoc3c2)c1` [C7-substituted chromone derivative, 3j], the pIC50 in assay [1] was 5.10; in assay [2], 7.21.

In the case of `Cc1ccc(COc2ccc3c(=O)ccoc3c2)cc1` [C7-substituted chromone derivative, 3k], the pIC50 is 5.15 in assay [1] and 7.12 in assay [2]. The like results for `N#Cc1cccc(COc2ccc3c(=O)ccoc3c2)c1` [C7-substituted chromone derivative, 3l] were, in that order, 6.11 and 6.43. As to `N#Cc1ccc(COc2ccc3c(=O)ccoc3c2)cc1` [C7-substituted chromone derivative, 3m], the negative-log IC50 (pIC50) in assay [1] was 5.80; in assay [2], 6.93. Take `O=c1ccoc2cc(OCc3ccc(C(F)(F)F)cc3)ccc12` [C7-substituted chromone derivative, 3n]: in assay [1], the pIC50 was 5.71. Regarding `O=c1ccoc2cc(OCCc3ccc(Br)cc3)ccc12` [C7-substituted chromone derivative, 3o], the pIC50 in assay [1] was 6.14; in assay [2], 6.50.
